≈ marks a conversion by molar mass, not a printed value. Read-outs that look alike come from different tables or passages of the source.
Tests used:
Test in all cases: microbe, parasite or virus in culture
E. coli DH10B = tested on: T1, E. coli DH10B; set-up: species or system bacterial strain of the line; Mueller-Hinton agar-dilution MIC, CLSI; concentration at which bacterial growth was no longer observed; conditions: Escherichia coli
T1 construct: DH10B
Procedure: (§1) Mueller-Hinton (MH) agar-dilution MIC measurements were performed according to Clinical and Laboratory Standards Institute (CLSI) guidelines as previously described ([12], [30]). The MICs are reported as the concentrations at which bacterial growth was no longer observed. Avibactam was tested at a constant 4 µg/ml in combination with its respective antibiotic partners. All MIC measurements were performed at least three times. The impact of site-saturation mutagenesis at Ambler position 179 of KPC-2 on antibiotic resistance was next assessed using whole-cell viability assays. Twenty-four different β-lactam and β-lactam–β-lactamase inhibitor combinations were tested for susceptibility against KPC-2 and the 19 variants expressed in E. coli DH10B cells (Tables 1 and 2). The Klebsiella pneumoniae KPC-2-containing positive-control strain maintained resistance (as defined by Clinical and Laboratory Standards Institute [CLSI] criteria) against all the commercially available β-lactams tested (Table 1).

E. coli DH10B pBC SK = tested on: T2, E. coli DH10B pBC SK; set-up: species or system bacterial strain of the line; Mueller-Hinton agar-dilution MIC, CLSI; concentration at which bacterial growth was no longer observed; conditions: Escherichia coli, empty vector pBC SK
T2 construct: DH10B carries empty vector pBC SK
Procedure: as §1

K. pneumoniae KPC-2 = tested on: T3, K. pneumoniae KPC-2; set-up: species or system bacterial strain of the line; Mueller-Hinton agar-dilution MIC, CLSI; concentration at which bacterial growth was no longer observed; conditions: Klebsiella pneumoniae
T3 construct: KPC-2-producing control strain, also producing TEM-1 and SHV-29

[1] = tested on: T4, blaKPC-2 179 Asp (WT) in E. coli DH10B; set-up: species or system E. coli DH10B / K. pneumoniae; Mueller-Hinton agar dilution MIC, CLSI, no visible growth; conditions: Escherichia coli
T4 construct: DH10B expressing blaKPC-2 (wild type)
Procedure: Mueller-Hinton (MH) agar-dilution MIC measurements were performed according to Clinical and Laboratory Standards Institute (CLSI) guidelines as previously described ([12], [30]). The MICs are reported as the concentrations at which bacterial growth was no longer observed. Avibactam was tested at a constant 4 µg/ml in combination with its respective antibiotic partners. All MIC measurements were performed at least three times.

[2] = BAL, read-out: MIC(s) (µg/ml) / BAL

Compound `C[C@H]1[C@H](NC(=O)/C(=N\OC(C)(C)C(=O)O)c2csc(N)n2)C(=O)N1S(=O)(=O)O` [AZT, aztreonam] has an MIC (E. coli DH10B; DH10B, read-out: MIC(s) (µg/ml) / AZT) of 0.06 µg/mL and an MIC (E. coli DH10B pBC SK; DH10BPBCSK, read-out: MIC(s) (µg/ml) / AZT) of 0.06 µg/mL.
In the case of `CC1(C)[C@H](NC(=O)/C(=N\OCc2cc(=O)c(O)cn2O)c2csc(N)n2)C(=O)N1OS(=O)(=O)O` [BAL30072], the MIC (K. pneumoniae KPC-2; [2]) was 8 µg/mL (≈ 15.4 µM), the MIC (E. coli DH10B; [2]) was no more than 0.06 µg/mL and the MIC (E. coli DH10B pBC SK; [2]) was no more than 0.06 µg/mL. It also gave an MIC [1, 2] of no more than 0.06 µg/mL.
`CC(C)(O/N=C(\C(=O)N[C@@H]1C(=O)N2C(C(=O)[O-])=C(C[n+]3ccccc3)CS[C@H]12)c1csc(N)n1)C(=O)O` [CAZ, ceftazidime] showed an MIC (K. pneumoniae KPC-2; KPC2, read-out: MIC(s) (µg/ml) / CAZ) of 64 µg/mL (≈ 117 µM), an MIC (E. coli DH10B; DH10B, read-out: MIC(s) (µg/ml) / CAZ) of 0.25 µg/mL and an MIC (E. coli DH10B pBC SK; DH10BPBCSK, read-out: MIC(s) (µg/ml) / CAZ) of 0.25 µg/mL. It also gave an MIC ([1]; read-out: MIC(s) (µg/ml) / CAZ) of 1 µg/mL.
Compound `CO/N=C(\C(=O)N[C@@H]1C(=O)N2C(C(=O)O)=C(CSc3nc(=O)c(=O)[nH]n3C)CS[C@H]12)c1csc(N)n1` [CRO, ceftriaxone] has an MIC (E. coli DH10B; DH10B, read-out: MIC(s) (µg/ml) / CRO) of no more than 0.06 µg/mL, an MIC (E. coli DH10B pBC SK; DH10BPBCSK, read-out: MIC(s) (µg/ml) / CRO) of no more than 0.06 µg/mL and an MIC ([1]; read-out: MIC(s) (µg/ml) / CRO) of 0.5 µg/mL.
`C[C@@H](O)[C@H]1C(=O)N2C(C(=O)O)=C(SCCN=CN)C[C@H]12` [IMI, imipenem] was tested, and the MIC (K. pneumoniae KPC-2; KPC2, read-out: MIC(s) (µg/ml) / IMI) was 16 µg/mL (≈ 53.4 µM), the MIC (E. coli DH10B; DH10B, read-out: MIC(s) (µg/ml) / IMI) was 0.5 µg/mL and the MIC (E. coli DH10B pBC SK; DH10BPBCSK, read-out: MIC(s) (µg/ml) / IMI) was 0.5 µg/mL. For the same compound, the MIC ([1]; read-out: MIC(s) (µg/ml) / IMI) was 1 µg/mL.
For `CCO/N=C(\C(=O)N[C@@H]1C(=O)N2C(C(=O)[O-])=C(Sc3nc(-c4cc[n+](C)cc4)cs3)CS[C@H]12)c1nsc(N)n1` [TAR, ceftaroline], the MIC (K. pneumoniae KPC-2; KPC2, read-out: MIC(s) (µg/ml) / TAR) was 512 µg/mL (≈ 847 µM), the MIC (E. coli DH10B; DH10B, read-out: MIC(s) (µg/ml) / TAR) was 0.06 µg/mL and the MIC (E. coli DH10B pBC SK; DH10BPBCSK, read-out: MIC(s) (µg/ml) / TAR) was less than 0.06 µg/mL. The MIC ([1]; read-out: MIC(s) (µg/ml) / TAR) was 1 µg/mL.
Compound `CC1(C)S[C@@H]2[C@H](NC(=O)[C@H](N)c3ccccc3)C(=O)N2[C@H]1C(=O)O` [ampicillin] has an MIC (K. pneumoniae KPC-2; KPC2, read-out: MIC(s) (µg/ml) / AMP) greater than 8190 µg/mL, an MIC (E. coli DH10B; DH10B, read-out: MIC(s) (µg/ml) / AMP) of 8 µg/mL and an MIC (E. coli DH10B pBC SK; DH10BPBCSK, read-out: MIC(s) (µg/ml) / AMP) of 4 µg/mL. It also gave an MIC ([1]; read-out: MIC(s) (µg/ml) / AMP) of 64 µg/mL.
With `CO/N=C(\C(=O)N[C@@H]1C(=O)N2C(C(=O)[O-])=C(C[N+]3(C)CCCC3)CS[C@H]12)c1csc(N)n1` [cefepime] the MIC (K. pneumoniae KPC-2; KPC2, read-out: MIC(s) (µg/ml) / FEP) was 64 µg/mL (≈ 133 µM), the MIC (E. coli DH10B; DH10B, read-out: MIC(s) (µg/ml) / FEP) was no more than 0.125 µg/mL and the MIC (E. coli DH10B pBC SK; DH10BPBCSK, read-out: MIC(s) (µg/ml) / FEP) was no more than 0.125 µg/mL. The MIC ([1]; read-out: MIC(s) (µg/ml) / FEP) was 0.125 µg/mL.
`CO/N=C(\C(=O)N[C@@H]1C(=O)N2C(C(=O)O)=C(COC(C)=O)CS[C@H]12)c1csc(N)n1` [cefotaxime] was tested, and the MIC (K. pneumoniae KPC-2; KPC2, read-out: MIC(s) (µg/ml) / TAX) was 64 µg/mL (≈ 141 µM), the MIC (E. coli DH10B; DH10B, read-out: MIC(s) (µg/ml) / TAX) was no more than 0.06 µg/mL and the MIC (E. coli DH10B pBC SK; DH10BPBCSK, read-out: MIC(s) (µg/ml) / TAX) was no more than 0.06 µg/mL. The MIC ([1]; read-out: MIC(s) (µg/ml) / TAX) was 0.25 µg/mL.
For `CC(=O)OCC1=C(C(=O)O)N2C(=O)[C@@H](NC(=O)Cc3cccs3)[C@H]2SC1` [cephalothin], the MIC (K. pneumoniae KPC-2; KPC2, read-out: MIC(s) (µg/ml) / THIN) was 2050 µg/mL (≈ 5170 µM), the MIC (E. coli DH10B; DH10B, read-out: MIC(s) (µg/ml) / THIN) was 4 µg/mL and the MIC (E. coli DH10B pBC SK; DH10BPBCSK, read-out: MIC(s) (µg/ml) / THIN) was 4 µg/mL. The MIC ([1]; read-out: MIC(s) (µg/ml) / THIN) was 64 µg/mL.
For `C[C@@H](O)[C@H]1C(=O)N2C(C(=O)O)=C(S[C@@H]3CN[C@H](CNS(N)(=O)=O)C3)[C@H](C)[C@H]12` [doripenem], the MIC (K. pneumoniae KPC-2; KPC2, read-out: MIC(s) (µg/ml) / DOR) was 8 µg/mL (≈ 19 µM), the MIC (E. coli DH10B; DH10B, read-out: MIC(s) (µg/ml) / DOR) was no more than 0.06 µg/mL and the MIC (E. coli DH10B pBC SK; DH10BPBCSK, read-out: MIC(s) (µg/ml) / DOR) was no more than 0.06 µg/mL. For the same compound, the MIC ([1]; read-out: MIC(s) (µg/ml) / DOR) was 0.125 µg/mL.
Compound `C[C@@H](O)[C@H]1C(=O)N2C(C(=O)O)=C(S[C@@H]3CN[C@H](C(=O)Nc4cccc(C(=O)O)c4)C3)[C@H](C)[C@H]12` [ertapenem] has an MIC (K. pneumoniae KPC-2; KPC2, read-out: MIC(s) (µg/ml) / ERT) of 32 µg/mL (≈ 67.3 µM), an MIC (E. coli DH10B; DH10B, read-out: MIC(s) (µg/ml) / ERT) of no more than 0.03 µg/mL and an MIC (E. coli DH10B pBC SK; DH10BPBCSK, read-out: MIC(s) (µg/ml) / ERT) of no more than 0.03 µg/mL. For the same compound, the MIC ([1]; read-out: MIC(s) (µg/ml) / ERT) was no more than 0.06 µg/mL.
For `C[C@@H](O)[C@H]1C(=O)N2C(C(=O)O)=C(S[C@@H]3CN[C@H](C(=O)N(C)C)C3)[C@H](C)[C@H]12` [meropenem], the MIC (K. pneumoniae KPC-2; KPC2, read-out: MIC(s) (µg/ml) / MEM) was 16 µg/mL (≈ 41.7 µM), the MIC (E. coli DH10B; DH10B, read-out: MIC(s) (µg/ml) / MEM) was no more than 0.06 µg/mL and the MIC (E. coli DH10B pBC SK; DH10BPBCSK, read-out: MIC(s) (µg/ml) / MEM) was no more than 0.06 µg/mL. The MIC ([1]; read-out: MIC(s) (µg/ml) / MEM) was 0.06 µg/mL.
For `CCN1CCN(C(=O)N[C@@H](C(=O)N[C@@H]2C(=O)N3[C@@H]2SC(C)(C)[C@@H]3C(=O)O)c2ccccc2)C(=O)C1=O` [piperacillin], the MIC (K. pneumoniae KPC-2; KPC2, read-out: MIC(s) (µg/ml) / PIP) was 2050 µg/mL (≈ 3960 µM), the MIC (E. coli DH10B; DH10B, read-out: MIC(s) (µg/ml) / PIP) was 2 µg/mL and the MIC (E. coli DH10B pBC SK; DH10BPBCSK, read-out: MIC(s) (µg/ml) / PIP) was 2 µg/mL. It also gave an MIC ([1]; read-out: MIC(s) (µg/ml) / PIP) of 8 µg/mL.

Reference: article PMC5666153, “Klebsiella pneumoniae Carbapenemase-2 (KPC-2), Substitutions at Ambler Position Asp179, and Resistance to Ceftazidime-Avibactam: Unique Antibiotic-Resistant Phenotypes Emerge from β-Lactamase Protein Engineering” (mBio, 2017)
